Data reported in patent publication US9499492B2, “4-(ortho)-fluorophenyl-5-fluoropyrimidin-2-yl amines containing a sulfoximine group” (BAYER PHARMA AKTIENGESELLSCHAFT, priority 2012, dated 2016).
Read-outs that look alike come from different tables or passages of the source.

Key:
[1] = system: HeLa-MaTu-ADR, multidrug-resistant human cervical carcinoma cells; experiment: Proliferation assay, HeLa-MaTu-ADR (Method 3); assay type: cell-based; details: 4 days, crystal violet, read-out: Inhibition of HeLa-MaTu-ADR cell proliferation IC50
Method: (§1) After 24 hours, the cells of one plate (zero-point plate) were stained with crystal violet (see below), while the medium of the other plates was replaced by fresh culture medium (200 μl), to which the test substances were added in various concentrations (0 μM, as well as in the range of 0.001-10 μM; the final concentration of the solvent dimethyl sulfoxide was 0.5%). The cells were incubated for 4 days in the presence of test substances. Cell proliferation was determined by staining the cells with crystal violet: the cells were fixed by adding 20 μl/measuring point of an 11% glutaric aldehyde solution for 15 minutes at room temperature. After three washing cycles of the fixed cells with water, the plates were dried at room temperature. The cells were stained by adding 100 μl/measuring point of a 0.1% crystal violet solution (pH 3.0). After three washing cycles of the stained cells with water, the plates were dried at room temperature. The dye was dissolved by adding 100 μl/measuring point of a 10% acetic acid solution. The extinction was determined by photometry at a wavelength of 595 nm. The change of cell number, in percent, was calculated by normalization of the measured values to the extinction values of the zero-point plate (=0%) and the extinction of the untreated (0 μm) cells (=100%).

[2] = In vitro metabolic stability in rat hepatocytes (Method 5); assay type: in vitro ADME, Han Wistar rat; details: 1 μM test compound
Method: 5. Investigation of In Vitro Metabolic Stability in Rat Hepatocytes
Hepatocytes from Han Wistar rats were isolated via a 2-step perfusion method. After perfusion, the liver was carefully removed from the rat: the liver capsule was opened and the hepatocytes were gently shaken out into a Petri dish with ice-cold Williams medium E (purchased from Sigma Aldrich Life Science, St Louis, Mo.). The resulting cell suspension was filtered through sterile gaze in 50 ml falcon tubes and centrifuged at 50×g for 3 min at room temperature. The cell pellet was resuspended in 30 ml WME and centrifuged through a Percoll® gradient for 2 times at 100×g. The hepatocytes were washed again with Williams' medium E (WMA) and resuspended in medium containing 5% Fetal calf serum (FCS, purchased from Invitrogen, Auckland, NZ). Cell viability was determined by trypan blue exclusion.
For the metabolic stability assay liver cells were distributed in WME containing 5% FCS to glass vials at a density of 1.0×10^6 vital cells/ml. The test compound was added to a final concentration of 1 μM. During incubation, the hepatocyte suspensions were continuously shaken and aliquots were taken at 2, 8, 16, 30, 45 and 90 min, to which equal volumes of cold acetonitrile were immediately added. Samples were frozen at −20° C. over night, after subsequently centrifuged for 15 minutes at 3000 rpm and the supernatant was analyzed with an Agilent 1200 HPLC-system with LCMS/MS detection.
The half-life of a test compound was determined from the concentration-time plot. From the half-life the intrinsic clearances were calculated. Together with the additional parameters liver blood flow, amount of liver cells in vivo and in vitro.

[3] = system: NCI-H460, human non-small cell lung carcinoma cells; experiment: Proliferation assay, NCI-H460 (Method 3); assay type: cell-based; details: NCI-H460, 4 days, crystal violet, read-out: Inhibition of H460 cell proliferation IC50
Method: as §1

[4] = system: HeLa, human cervical tumour cells; experiment: Proliferation assay, HeLa (Method 3); assay type: cell-based; details: 4 days, crystal violet, read-out: Inhibition of HeLa cell proliferation IC50
In short: (§2)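 24 h attachment → fresh medium + test cpd (0.001–10 μM, 0.5% DMSO final) → 4 d incubation → glutaraldehyde fix, 0.1% crystal violet (pH 3.0), acetic acid elution → A595. Normalized: zero-point plate = 0%, vehicle = 100%.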

[5] = system: B16F10, mouse melanoma cells; experiment: Proliferation assay, B16F10 (Method 3); assay type: cell-based; details: B16F10, 4 days, crystal violet, read-out: Inhibition of B16F10 cell proliferation IC50
Method: as §1

CDK9/CycT1 [6] = biological target: T1, CDK9/CycT1 (Homo sapiens (Human), UniProt P50750); experiment: CDK9/CycT1 high ATP kinase assay (Method 1b); assay type: biochemical; details: 2 mM ATP
T1 sequence (P50750 whole entry): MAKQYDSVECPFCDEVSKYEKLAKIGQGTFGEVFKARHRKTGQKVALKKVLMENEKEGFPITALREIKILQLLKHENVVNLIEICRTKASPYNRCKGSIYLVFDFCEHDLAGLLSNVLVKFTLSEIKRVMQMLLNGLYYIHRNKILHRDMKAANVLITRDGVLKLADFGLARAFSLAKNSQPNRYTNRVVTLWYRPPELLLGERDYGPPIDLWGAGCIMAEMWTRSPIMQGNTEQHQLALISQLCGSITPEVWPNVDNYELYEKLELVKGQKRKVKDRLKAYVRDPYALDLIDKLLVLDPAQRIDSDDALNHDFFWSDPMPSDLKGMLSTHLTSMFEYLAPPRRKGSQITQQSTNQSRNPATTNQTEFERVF
T1 sequence (O60563 whole entry partner): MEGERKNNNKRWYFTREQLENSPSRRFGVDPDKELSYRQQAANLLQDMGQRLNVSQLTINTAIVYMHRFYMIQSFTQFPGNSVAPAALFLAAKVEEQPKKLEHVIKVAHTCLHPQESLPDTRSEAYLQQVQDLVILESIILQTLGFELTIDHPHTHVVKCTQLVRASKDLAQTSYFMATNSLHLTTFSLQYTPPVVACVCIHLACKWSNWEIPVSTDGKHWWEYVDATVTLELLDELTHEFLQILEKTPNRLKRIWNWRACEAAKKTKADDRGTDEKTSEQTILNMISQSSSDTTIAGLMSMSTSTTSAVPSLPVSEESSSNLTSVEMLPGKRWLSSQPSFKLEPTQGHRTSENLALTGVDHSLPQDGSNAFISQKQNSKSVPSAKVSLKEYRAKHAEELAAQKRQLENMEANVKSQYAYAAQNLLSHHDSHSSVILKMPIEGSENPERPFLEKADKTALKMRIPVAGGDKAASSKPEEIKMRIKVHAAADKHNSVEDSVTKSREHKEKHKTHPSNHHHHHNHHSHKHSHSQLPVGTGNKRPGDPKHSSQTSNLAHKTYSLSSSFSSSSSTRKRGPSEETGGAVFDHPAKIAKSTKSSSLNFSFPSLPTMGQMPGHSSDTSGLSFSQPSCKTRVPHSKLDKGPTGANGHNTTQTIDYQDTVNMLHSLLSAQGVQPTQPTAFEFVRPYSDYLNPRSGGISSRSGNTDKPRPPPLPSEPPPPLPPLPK
In short: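 Full-length His-tagged human CDK9/CycT1 (insect cells, ~0.5 μg/ml) pre-incubated 15 min at 22 °C with compound in Tris pH 8.0/MgCl2/DTT buffer; biotinylated peptide substrate, high ATP. After detection reagents, 1 h at 22 °C; TR-FRET 665/620 nm emission ratio (350 nm excitation) measured phosphorylation.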

CDK9/CycT1 [7] = biological target: T1, CDK9/CycT1; experiment: CDK9/CycT1 kinase assay (Method 1a); assay type: biochemical; details: 10 μM ATP
[8] = system: MOLM-13 human acute myeloid leukemia cells; experiment: Proliferation assay, MOLM-13 (Cell Titre-Glo, Method 3); assay type: cell-based; details: MOLM-13, 72-hour exposure, read-out: Inhibition of MOLM-13 cell proliferation IC50
Method: Non-adherent MOLM-13 human acute myeloid leukemia cells (DSMZ ACC 554) were seeded at a density of 5,000 cells/well in a 96-well multititer plate in 100 μL of growth medium supplemented 10% fetal calf serum. After 24 hours, cell viability of one plate (zero-point plate) was determined with the Cell Titre-Glo Luminescent Cell Viability Assay (Promega), while 50 μL of test compound containing medium was added to the wells of the other plates (final concentrations in the range of 0.001-10 μM and DMSO controls; the final concentration of the solvent dimethyl sulfoxide was 0.5%). Cell viability was assessed after 72-hour exposure with the Cell Titre-Glo Luminescent Cell Viability Assay (Promega).

[9] = system: A2780, human ovarian carcinoma cells; experiment: Proliferation assay, A2780 (Method 3); assay type: cell-based; details: A2780, 4 days, crystal violet; read-out: Inhibition of A2780 cell proliferation IC50
In short: as §2

[10] = system: DU 145, hormone-independent human prostate carcinoma cells; experiment: Proliferation assay, DU 145 (Method 3); assay type: cell-based; details: DU145, 4 days, crystal violet, read-out: Inhibition of DU145 cell proliferation IC50
Method: as §1

[11] = system: Caco-2, human colorectal carcinoma cells; experiment: Proliferation assay, Caco-2 (Method 3); assay type: cell-based; details: Caco-2, 4 days, crystal violet, read-out: Inhibition of Caco-2 cell proliferation IC50
Method: as §1

CDK2/CycE = CDK2/CycE (Homo sapiens (Human), UniProt P24941); experiment: CDK2/CycE kinase assay (Method 2); assay type: biochemical; details: 10 μM ATP
[12] = biological target: human carbonic anhydrase-2 (Homo sapiens (Human), UniProt P00918); experiment: Carbonic anhydrase assay, carbonic anhydrase-2 (Method 4); assay type: biochemical; details: read-out: Inhibition of Carbonic anhydrase-2 IC50
Method: (§3) 4. Carbonic Anhydrase Assay
The principle of the assay is based on the hydrolysis of 4-nitrophenyl acetate by carbonic anhydrases (Pocker & Stone, Biochemistry, 1967, 6, 668), with subsequent photometric determination of the dye product 4-nitrophenolate at 400 nm by means of a 96-channel spectral photometer.
(§4) 2 μL of the test compounds, dissolved in DMSO (100-fold final concentration), in a concentration range of 0.03-10 μmol/L (final), was pipetted as quadruplicates into the wells of a 96-hole microtiter plate. Wells that contained the solvent without test compounds were used as reference values (1. Wells without carbonic anhydrase for correction of the non-enzymatic hydrolysis of the substrate, and 2. Wells with carbonic anhydrase for determining the activity of the non-inhibited enzyme).
(§5) 188 μL of assay buffer (10 mmol/L of Tris/HCl, pH 7.4, 80 mmol/L of NaCl), with or without 3 units/well of carbonic anhydrase-1 [=human carbonic anhydrase-1 (Sigma, #C4396)] in order to determine carbonic anhydrase-1 inhibition or 3 units/well of carbonic anhydrase-2 [=human carbonic anhydrase-2 (Sigma, #C6165)] for measuring carbonic anhydrase-2 inhibition, was pipetted into the wells of the microtiter plate.

[13] = biological target: human carbonic anhydrase-1 (Homo sapiens (Human), UniProt P00915); experiment: Carbonic anhydrase assay, carbonic anhydrase-1 (Method 4); assay type: biochemical; details: read-out: Inhibition of Carbonic anhydrase-1 IC50
human carbonic anhydrase-1, sequence (P00915 whole entry): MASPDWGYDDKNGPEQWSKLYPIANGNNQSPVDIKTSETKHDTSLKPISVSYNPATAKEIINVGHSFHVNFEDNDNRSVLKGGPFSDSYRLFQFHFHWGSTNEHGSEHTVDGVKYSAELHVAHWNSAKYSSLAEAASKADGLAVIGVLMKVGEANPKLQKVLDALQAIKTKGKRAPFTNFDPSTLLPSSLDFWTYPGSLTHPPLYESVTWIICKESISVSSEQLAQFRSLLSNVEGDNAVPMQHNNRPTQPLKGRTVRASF
Method: as §3, §4, §5

| IC50 [1] [nM] | maximal calculated oral bioavailability (Fmax) based on stability data in rat Hepatocytes [2] [%] | IC50 [3] [nM] | IC50 [4] [nM] | IC50 [5] [nM] | IC50 (CDK9/CycT1 [6]) [nM] | IC50 (CDK9/CycT1 [7]) [nM] | IC50 [8] [nM] | IC50 [9] [nM] | IC50 [10] [nM] | IC50 [11] [nM] | IC50 (CDK2/CycE) [nM] | IC50 [12] [nM] | IC50 [13] [nM] | IC50 ([1]; Homo sapiens, 96 h) [nM] | IC50 ([3]; Homo sapiens, NCI-H460, 96 h) [nM] | IC50 ([4]; Homo sapiens, 96 h) [nM] | IC50 ([5]; Mus musculus, B16-F10, 96 h) [nM] | IC50 ([10]; Homo sapiens, DU-145, 96 h) [nM] | IC50 ([11]; Homo sapiens, Caco-2, 96 h) [nM] | SMILES |
| --- | --- | --- | --- | --- | --- | --- | --- | --- | --- | --- | --- | --- | --- | --- | --- | --- | --- | --- | --- | --- |
| 134 | 90 | 317 | 172 | 323 | 11 | 4 | 39 | 99 | 142 | 202 | – | – | – | – | – | – | – | – | – | CS(=O)(Cc1cc(Nc2ncc(F)c(-c3ccc(F)cc3F)n2)cc(S(F)(F)(F)(F)F)c1)=NC(N)=O (single isomer, unassigned) [Example 34, 1-{[3-{[4-(2,4-Difluorophenyl)-5-fluoropyrimidin-2-yl]amino}-5-(pentafluoro-λ^6-sulfanyl)benzyl](methyl)oxido-λ^6-sulfanylidene}urea] |
| – | – | – | – | – | – | – | – | – | – | – | 470 | > 10000 | > 10000 | – | – | – | – | – | – | CS(=O)(Cc1cc(Br)cc(Nc2ncc(F)c(-c3ccc(F)cc3F)n2)c1)=NC#N (racemic) [Example 18, (rac)-[(3-Bromo-5-{[4-(2,4-difluorophenyl)-5-fluoropyrimidin-2-yl]amino}benzyl)(methyl)oxido-λ^6-sulfanylidene]cyanamide] |
| – | – | – | – | – | – | – | – | – | – | – | 230 | – | – | 330 | 384 | 320 | 321 | 340 | 344 | COc1cc(CS(C)(=O)=NC#N)cc(Nc2ncc(F)c(-c3ccc(F)cc3F)n2)c1 (racemic) [Example 20, (rac)-[(3-{[4-(2,4-Difluorophenyl)-5-fluoropyrimidin-2-yl]amino}-5-methoxybenzyl)(methyl)oxido-λ^6-sulfanylidene]cyanamide] |
